Legend:
Assay type in all cases: in vivo
[1] = system: Echinochloa oryzacola Vasing.; assay: Test Example 1: herbicidal activity, application before weed generation in submerged conditions (symbol A); conditions: application herbicide amount 320 g/ha
Outline: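 0–5 visual score, 3 wk post-application. Submerged pots, alluvial soil, water 4 cm; seeds sown mixed, rice at 2.5 leaves transplanted. Emulsion diluted to predetermined dose, applied to water surface at sowing. 25–30 °C greenhouse.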

transplanted rice plant = assay: Test Example 1: effect on crop, application before weed generation in submerged conditions (symbol a); conditions: application herbicide amount 320 g/ha
Outline: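 Alluvial soil pots flooded to 4 cm water, sown with Echinochloa oryzacola, Scirpus juncoides and Monochoria vaginalis, then transplanted with 2.5 leaf stage rice seedlings; pre-emergence application. Greenhouse 25° C. to 30° C.; scored 0–5 by herbicidal ratio 3 weeks after application.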

Monochoria vaginalis = assay: Test Example 2: herbicidal activity, application during weed generation in submerged conditions (symbol C); conditions: Table 23; application herbicide amount 320 g/ha; grade 0-5 by criteria of Test Example 1
Outline: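 Visual herbicidal ratings, taken three weeks after dosing, reflect post-emergence water-surface application to seedlings at one to two leaves. Conditions: co-sown weeds in alluvial soil flooded to 4 cm, greenhouse held at 25° C. to 30° C.; compound given as water-diluted emulsion at a fixed herbicide amount.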

Digitaria ciliaris = assay: Test Example 4: herbicidal effect by soil treatment (symbol F); conditions: application herbicide amount 320 g/ha
Outline: (§1)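 Seeds were sown in sterilized diluvial soil, covered with about 1.5 cm of soil, and the soil surface was sprayed with a water-diluted emulsion of the compound at a predetermined rate. Plants grew in a greenhouse at 25° C. to 30° C.; effects were scored visually 3 weeks after application.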

[2] = system: Echinochloa crus-galli var. crus-galli; assay: Test Example 4: herbicidal effect by soil treatment (symbol H); conditions: application herbicide amount 320 g/ha
Outline: as §1

Avena fatua = assay: Test Example 4: herbicidal effect by soil treatment (symbol I); conditions: application herbicide amount 320 g/ha
Outline: as §1

Lolium multiflorum Lam. [3] = assay: Test Example 4: herbicidal effect by soil treatment (symbol K); conditions: application herbicide amount 320 g/ha
Outline: as §1

Apera spica-venti [4] = assay: Test Example 4: herbicidal effect by soil treatment (symbol L); conditions: application herbicide amount 320 g/ha
Outline: as §1

Veronica persica = assay: Test Example 4: herbicidal effect by soil treatment (symbol R); conditions: application herbicide amount 320 g/ha
Outline: as §1

soybean = assay: Test Example 4: effect on crop by soil treatment (symbol d); conditions: application herbicide amount 320 g/ha
Outline: (§2)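 Crop seeds, among them rice, wheat, beet and rapeseed, were sown in sterilized diluvial soil and covered with about 1.5 cm of soil. Boxes were kept in a greenhouse at 25° C. to 30° C. for plant growth.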

rice = assay: Test Example 4: effect on crop by soil treatment (symbol b); conditions: application herbicide amount 320 g/ha
Outline: as §2

rapeseed = assay: Test Example 4: effect on crop by soil treatment (symbol g); conditions: application herbicide amount 320 g/ha
Outline: as §2

[5] = system: Echinochloa crus-galli var. crus-galli; assay: Test Example 5: herbicidal effect by foliage application, plastic box (symbol H); conditions: 320 g/ha, 3 weeks after application
Outline: (§3)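 Visual herbicidal score, taken three weeks post-application, of seedlings sprayed on the foliage with water-diluted emulsion at a predetermined amount; plants were 14 days old, greenhouse-raised at 25° C. to 30° C.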

Lolium multiflorum Lam. [6] = assay: Test Example 5: herbicidal effect by foliage application, plastic box (symbol K); conditions: 320 g/ha, 3 weeks after application
Outline: as §3

Apera spica-venti [7] = assay: Test Example 5: herbicidal effect by foliage application, plastic box (symbol L); conditions: 320 g/ha, 3 weeks after application
Outline: as §3

Stellaria media [8] = assay: Test Example 5: herbicidal effect by foliage application, plastic box (symbol P); conditions: 320 g/ha, 3 weeks after application
Outline: as §3

Stellaria media [9] = assay: Test Example 4: herbicidal effect by soil treatment (symbol P); conditions: application herbicide amount 320 g/ha
Outline: as §1

Row | Structure (SMILES) | Herbicidal effect grade, A: Echinochloa oryzacola Vasing. [1] | Effect grade on crop, a: transplanted rice plant (transplanted rice plant) | Herbicidal effect grade, C: Monochoria vaginalis (Monochoria vaginalis) | F: Digitaria ciliaris, herbicidal effect grade (Digitaria ciliaris) | H: Echinochloa crus-galli var. crus-galli, herbicidal effect grade [2] | I: Avena fatua, herbicidal effect grade (Avena fatua) | K: Lolium multiflorum Lam., herbicidal effect grade (Lolium multiflorum Lam. [3]) | L: Apera spica-venti, herbicidal effect grade (Apera spica-venti [4]) | R: Veronica persica, herbicidal effect grade (Veronica persica) | d: soybean, effect on crop grade (soybean) | b: directly sowed rice plant, effect on crop grade (rice) | g: rapeseed, effect on crop grade (rapeseed) | H: Echinochloa crus-galli var. crus-galli, herbicidal effect grade [5] | K: Lolium multiflorum Lam., herbicidal effect grade (Lolium multiflorum Lam. [6]) | L: Apera spica-venti, herbicidal effect grade (Apera spica-venti [7]) | P: Stellaria media, herbicidal effect grade (Stellaria media [8]) | P: Stellaria media, herbicidal effect grade (Stellaria media [9])
1 | CCCC(=O)C(C(=O)OC)C1CC(O)=C(c2c(C)cc(C)cc2C)C1=O (centres unmarked) [2-020] | 2 (Herbicidal ratio of 20% or higher and lower than 40%) | 3 (Herbicidal ratio of 40% or higher and lower than 70%) | 0 (Herbicidal ratio of 5% or lower (almost no effect)) | 5 (Herbicidal ratio of 90% or more (almost completely withered)) | 4 (Herbicidal ratio of 70% or higher and lower than 90%) | 0 (Herbicidal ratio of 5% or lower (almost no effect)) | 4 (Herbicidal ratio of 70% or higher and lower than 90%) | 0 (Herbicidal ratio of 5% or lower (almost no effect)) | 0 (Herbicidal ratio of 5% or lower (almost no effect)) | 0 (Herbicidal ratio of 5% or lower (almost no effect)) | 5 (Herbicidal ratio of 90% or more (almost completely withered)) | 0 (Herbicidal ratio of 5% or lower (almost no effect)) | 4 (Herbicidal ratio of 70% or higher and lower than 90%) | 5 (Herbicidal ratio of 90% or more (almost completely withered)) | 0 (Herbicidal ratio of 5% or lower (almost no effect)) | 0 (Herbicidal ratio of 5% or lower (almost no effect)) | –
2 | CCC(=O)CCC1CC(OC)=C(c2c(C)cc(C)cc2C)C1=O (centres unmarked) [5-002] | 0 (Herbicidal ratio of 5% or lower (almost no effect)) | 0 (Herbicidal ratio of 5% or lower (almost no effect)) | 0 (Herbicidal ratio of 5% or lower (almost no effect)) | 0 (Herbicidal ratio of 5% or lower (almost no effect)) | 0 (Herbicidal ratio of 5% or lower (almost no effect)) | 0 (Herbicidal ratio of 5% or lower (almost no effect)) | 0 (Herbicidal ratio of 5% or lower (almost no effect)) | 0 (Herbicidal ratio of 5% or lower (almost no effect)) | 0 (Herbicidal ratio of 5% or lower (almost no effect)) | 0 (Herbicidal ratio of 5% or lower (almost no effect)) | 0 (Herbicidal ratio of 5% or lower (almost no effect)) | – | 0 (Herbicidal ratio of 5% or lower (almost no effect)) | 0 (Herbicidal ratio of 5% or lower (almost no effect)) | 0 (Herbicidal ratio of 5% or lower (almost no effect)) | – | –
3 | Cc1cc(C)c(C2=C(O)CC(CC(=O)CC3CC3)C2=O)c(C)c1 (centres unmarked) [2-026] | 3 (Herbicidal ratio of 40% or higher and lower than 70%) | 4 (Herbicidal ratio of 70% or higher and lower than 90%) | 0 (Herbicidal ratio of 5% or lower (almost no effect)) | 5 (Herbicidal ratio of 90% or more (almost completely withered)) | 5 (Herbicidal ratio of 90% or more (almost completely withered)) | 0 (Herbicidal ratio of 5% or lower (almost no effect)) | 5 (Herbicidal ratio of 90% or more (almost completely withered)) | 2 (Herbicidal ratio of 20% or higher and lower than 40%) | 0 (Herbicidal ratio of 5% or lower (almost no effect)) | 0 (Herbicidal ratio of 5% or lower (almost no effect)) | 5 (Herbicidal ratio of 90% or more (almost completely withered)) | 4 (Herbicidal ratio of 70% or higher and lower than 90%) | 4 (Herbicidal ratio of 70% or higher and lower than 90%) | 5 (Herbicidal ratio of 90% or more (almost completely withered)) | 3 (Herbicidal ratio of 40% or higher and lower than 70%) | 0 (Herbicidal ratio of 5% or lower (almost no effect)) | –
4 | CON=C(C)CC1CC(O)=C(c2c(C)cc(C(=O)OC)cc2C)C1=O (centres unmarked) [6-023] | 0 (Herbicidal ratio of 5% or lower (almost no effect)) | 4 (Herbicidal ratio of 70% or higher and lower than 90%) | – | 1 (Herbicidal ratio of 5% or higher and lower than 20%) | 0 (Herbicidal ratio of 5% or lower (almost no effect)) | 0 (Herbicidal ratio of 5% or lower (almost no effect)) | 5 (Herbicidal ratio of 90% or more (almost completely withered)) | 4 (Herbicidal ratio of 70% or higher and lower than 90%) | 0 (Herbicidal ratio of 5% or lower (almost no effect)) | 0 (Herbicidal ratio of 5% or lower (almost no effect)) | 5 (Herbicidal ratio of 90% or more (almost completely withered)) | 3 (Herbicidal ratio of 40% or higher and lower than 70%) | 5 (Herbicidal ratio of 90% or more (almost completely withered)) | 5 (Herbicidal ratio of 90% or more (almost completely withered)) | 4 (Herbicidal ratio of 70% or higher and lower than 90%) | 0 (Herbicidal ratio of 5% or lower (almost no effect)) | 0 (Herbicidal ratio of 5% or lower (almost no effect))

— US11000033B2, “Ketone or oxime compound, and herbicide” (NISSAN CHEMICAL CORPORATION, priority 2014, dated 2021)
